# Reference: patent US10945932B2, “Prebiotic oral care compositions containing carboxylic acids” (COLGATE-PALMOLIVE COMPANY, priority 2013, dated 2021)
# Legend:
# Assay in all cases: Biofilm growth assay in BHI, crystal violet
# Format in all cases: cell-based
# Porphyromonas gingivalis = settings: P gingivalis
# Experimental: (§1) Late exponential growth phase liquid cultures were prepared by transferring the respective bacterium from blood agar plates to BHI and overnight incubation at 37° C. in an anaerobic atmosphere for A. viscosus, V. parvula, F. nucleatum, P. gingivalis, P. intermedia, T. forsythia, A. naeslundii, and C. sputigena, and in a 5% CO2 environment for S. salivarius, S. sanguinis, S. mitis, A. actinomycetemcomitans, S. mutans, and S. gordonii. […] Additionally, for each bacterium tested, a background control, to correct for background staining, was added. This background control contained the bacterium tested and 0.03 weight % chlorhexidine, as an antiseptic. Plates were incubated as previously described. After 48 hrs the supernatant was removed from the wells of the plates. The wells were washed twice with 1×100 μL/PBS (phosphate buffered saline), fixed for 20 minutes with 96% vol. ethanol (96% vol. solution in water) and the biofilm retained at the bottom of the wells was stained with 1 weight % crystal violet (1 weight % solution in water). […] Quantification of the stained biofilm was performed by measuring the absorbance at 630 nm using a Multiskan Ascent microplate reader (Thermo Scientific).
# Actinomyces naeslundii = settings: A naeslundii
# Experimental: as §1
# Streptococcus salivarius = settings: S salivarius
# Experimental: as §1
# Tannerella forsythia = settings: T forsythia
# Experimental: as §1
# Streptococcus sanguinis = settings: S sanguinis
# Experimental: as §1
# Fusobacterium nucleatum = settings: F nucleatum
# Experimental: as §1
# Streptococcus gordonii = settings: S gordonii
# Experimental: as §1
# Streptococcus mitis = settings: S mitis
# Experimental: as §1
# Streptococcus mutans = settings: S mutans
# Experimental: as §1
# Capnocytophaga sputigena = settings: C sputigena
# Experimental: as §1
structure (smiles),measurement,setting,value
"O=C(O)CCC(=O)O [Succinic acid, succinic acid]","biofilm growth, OD at 630 nm (crystal violet) at 48 hrs divided by OD of control (control = 1)",Porphyromonas gingivalis; 5 μmol/ml,1.0520
same,"biofilm growth, OD at 630 nm (crystal violet) at 48 hrs divided by OD of control (control = 1)",Porphyromonas gingivalis; 10 μmol/ml,1.0031
same,"biofilm growth, OD at 630 nm (crystal violet) at 48 hrs divided by OD of control (control = 1)",Porphyromonas gingivalis; 20 μmol/ml,0.1065
same,"biofilm growth, OD at 630 nm (crystal violet) at 48 hrs divided by OD of control (control = 1)",Porphyromonas gingivalis; 25 μmol/ml,0.1691
same,"biofilm growth, OD at 630 nm (crystal violet) at 48 hrs divided by OD of control (control = 1)",Actinomyces naeslundii; 5 μmol/ml,0.7746
same,"biofilm growth, OD at 630 nm (crystal violet) at 48 hrs divided by OD of control (control = 1)",Actinomyces naeslundii; 10 μmol/ml,0.2490
same,"biofilm growth, OD at 630 nm (crystal violet) at 48 hrs divided by OD of control (control = 1)",Actinomyces naeslundii; 20 μmol/ml,0.0240
same,"biofilm growth, OD at 630 nm (crystal violet) at 48 hrs divided by OD of control (control = 1)",Actinomyces naeslundii; 25 μmol/ml,0.0182
same,"biofilm growth, OD at 630 nm (crystal violet) at 48 hrs divided by OD of control (control = 1)",Streptococcus salivarius; 5 μmol/ml,3.7553
same,"biofilm growth, OD at 630 nm (crystal violet) at 48 hrs divided by OD of control (control = 1)",Streptococcus salivarius; 10 μmol/ml,1.2358
same,"biofilm growth, OD at 630 nm (crystal violet) at 48 hrs divided by OD of control (control = 1)",Streptococcus salivarius; 20 μmol/ml,0.6125
same,"biofilm growth, OD at 630 nm (crystal violet) at 48 hrs divided by OD of control (control = 1)",Streptococcus salivarius; 25 μmol/ml,1.7869
same,"biofilm growth, OD at 630 nm (crystal violet) at 48 hrs divided by OD of control (control = 1)",Tannerella forsythia; 5 μmol/ml,0.3223
same,"biofilm growth, OD at 630 nm (crystal violet) at 48 hrs divided by OD of control (control = 1)",Tannerella forsythia; 10 μmol/ml,0.0000
same,"biofilm growth, OD at 630 nm (crystal violet) at 48 hrs divided by OD of control (control = 1)",Tannerella forsythia; 20 μmol/ml,0.0000
same,"biofilm growth, OD at 630 nm (crystal violet) at 48 hrs divided by OD of control (control = 1)",Tannerella forsythia; 25 μmol/ml,0.0000
same,"biofilm growth, OD at 630 nm (crystal violet) at 48 hrs divided by OD of control (control = 1)",Streptococcus sanguinis; 5 μmol/ml,3.3955
same,"biofilm growth, OD at 630 nm (crystal violet) at 48 hrs divided by OD of control (control = 1)",Streptococcus sanguinis; 10 μmol/ml,2.9778
same,"biofilm growth, OD at 630 nm (crystal violet) at 48 hrs divided by OD of control (control = 1)",Streptococcus sanguinis; 20 μmol/ml,1.7748
same,"biofilm growth, OD at 630 nm (crystal violet) at 48 hrs divided by OD of control (control = 1)",Streptococcus sanguinis; 25 μmol/ml,1.9952
same,"biofilm growth, OD at 630 nm (crystal violet) at 48 hrs divided by OD of control (control = 1)",Fusobacterium nucleatum; 5 μmol/ml,2.7146
same,"biofilm growth, OD at 630 nm (crystal violet) at 48 hrs divided by OD of control (control = 1)",Fusobacterium nucleatum; 10 μmol/ml,5.3887
same,"biofilm growth, OD at 630 nm (crystal violet) at 48 hrs divided by OD of control (control = 1)",Fusobacterium nucleatum; 20 μmol/ml,0.5404
same,"biofilm growth, OD at 630 nm (crystal violet) at 48 hrs divided by OD of control (control = 1)",Fusobacterium nucleatum; 25 μmol/ml,0.1087
same,"biofilm growth, OD at 630 nm (crystal violet) at 48 hrs divided by OD of control (control = 1)",Streptococcus gordonii; 5 μmol/ml,2.3866
same,"biofilm growth, OD at 630 nm (crystal violet) at 48 hrs divided by OD of control (control = 1)",Streptococcus gordonii; 10 μmol/ml,4.4978
same,"biofilm growth, OD at 630 nm (crystal violet) at 48 hrs divided by OD of control (control = 1)",Streptococcus gordonii; 20 μmol/ml,1.6591
same,"biofilm growth, OD at 630 nm (crystal violet) at 48 hrs divided by OD of control (control = 1)",Streptococcus gordonii; 25 μmol/ml,0.5512
same,"biofilm growth, OD at 630 nm (crystal violet) at 48 hrs divided by OD of control (control = 1)",Streptococcus mitis; 5 μmol/ml,0.1603
same,"biofilm growth, OD at 630 nm (crystal violet) at 48 hrs divided by OD of control (control = 1)",Streptococcus mitis; 10 μmol/ml,0.1188
same,"biofilm growth, OD at 630 nm (crystal violet) at 48 hrs divided by OD of control (control = 1)",Streptococcus mitis; 20 μmol/ml,0.0851
same,"biofilm growth, OD at 630 nm (crystal violet) at 48 hrs divided by OD of control (control = 1)",Streptococcus mitis; 25 μmol/ml,0.1085
same,"biofilm growth, OD at 630 nm (crystal violet) at 48 hrs divided by OD of control (control = 1)",Streptococcus mutans; 5 μmol/ml,0.0053
same,"biofilm growth, OD at 630 nm (crystal violet) at 48 hrs divided by OD of control (control = 1)",Streptococcus mutans; 10 μmol/ml,0.2498
same,"biofilm growth, OD at 630 nm (crystal violet) at 48 hrs divided by OD of control (control = 1)",Streptococcus mutans; 20 μmol/ml,1.9127
same,"biofilm growth, OD at 630 nm (crystal violet) at 48 hrs divided by OD of control (control = 1)",Streptococcus mutans; 25 μmol/ml,0.9686
same,"biofilm growth, OD at 630 nm (crystal violet) at 48 hrs divided by OD of control (control = 1)",Capnocytophaga sputigena; 5 μmol/ml,2.0880
same,"biofilm growth, OD at 630 nm (crystal violet) at 48 hrs divided by OD of control (control = 1)",Capnocytophaga sputigena; 10 μmol/ml,2.1577
same,"biofilm growth, OD at 630 nm (crystal violet) at 48 hrs divided by OD of control (control = 1)",Capnocytophaga sputigena; 20 μmol/ml,0.2256
same,"biofilm growth, OD at 630 nm (crystal violet) at 48 hrs divided by OD of control (control = 1)",Capnocytophaga sputigena; 25 μmol/ml,0.3202
